# Measured values as given in patent publication US12318452B2, “Degraders of WEE1 kinase” (DANA-FARBER CANCER INSTITUTE, INC., priority 2018, dated 2025).
# Experiments:
# MOLT4 cells = assay: Cell cycle analysis by propidium iodide staining; format: cell-based
# Experimental: MOLT4 cells were plated at 1.5 million cells per well in a 6-well plate, with 3 mL of media per well. Immediately after plating, cells were treated with the indicated concentrations of the indicated compound. At the indicated time points, cells were collected by transferring each well to a 15 mL conical, centrifuging (1000 rpm for 3 min), and then washing the cell pellet 3× with cold PBS. Cell pellets were then fixed with 1 mL cold 80% ethanol in PBS at 4° C. overnight. The cell pellets were then washed by adding 1 mL of PBS and then centrifuging (1500 rpm for 5 minutes), followed by aspiration of the PBS/ethanol mix. Cells were resuspended in cell cycle staining solution (100 μg/mL of RNAse A (Roche, 10109169001) and 50 μg/mL propidium iodide (Life Technologies™, P1304MP), diluted in PBS, and incubated for 10 minutes at room temperature. Cell cycle data was acquired by flow cytometry on a Guava® easyCyte™ flow cytometer (Millipore™) using the InCyte™ software. Data was analyzed using FlowJo®. N=3 biological replicates were used for each treatment condition.
# Wee1 = Wee1 (Homo sapiens, UniProt P30291); assay: Wee1 degradation immunoblot in OVCAR8 cells; format: cell-based; parameters: endogenous in cells; conditions: 5 hours
# Experimental: Whole cell lysates for immunoblotting were prepared by pelleting cells from each cell line at 4° C. (300 g) for 5 minutes. The resulting cell pellets were washed 1× with ice-cold PBS and then resuspended in RIPA lysis buffer (Sigma, cat #R0278) supplemented with protease and phosphatase inhibitor tablets (Roche cat #4906845001). Lysates were clarified at 14,000 rpm for 15 minutes at 4° C. prior to quantification by BCA assay (Pierce™, cat #23225). Whole cell lysates were loaded into Bolt 4-12% Bis-Tris Gels (Thermo Fisher, cat #NW04120BOX) and separated by electrophoreses at 95 V for 1.5 hours. The gels were transferred to a nitrocellulose membrane using the iBlot® Gel Transfer at P3 for 7 minutes (Thermo Fisher, cat #IB23001) and then blocked for 1 hour at room temperature in Odyssey® blocking buffer (LICOR® Biosciences, cat #927-50010). Membranes were probed using antibodies against the relevant proteins at 4° C. overnight in 20% Odyssey® Blocking Buffer in 1×TBST. […]
# Compound 13 was profiled in three different ovarian cancer cell lines OVCAR8, COV362, and Kuramochi (FIG. 6C-FIG. 6E). […] After confirming that Compound 13 degraded Wee1 in OVCAR8 cells, with maximal degradation observed at a 100 nM treatment (FIG. 11A), the efficacy of compound 13 and Olaparib combination treatments were evaluated.
# OVCAR8 cells = assay: Synergy experiment, CellTiter-Glo co-treatment for 72 hours; format: cell-based; conditions: 72-hr co-treatment with Olaparib
# PLK1 = PLK1 (Homo sapiens, UniProt P53350); assay: Z′-LYTE kinase activity assay for PLK1; format: biochemical; parameters: purchased Life Technologies (Invitrogen) commercial assay service; conditions: Km ATP, average of two replicates ± SD
# Experimental: LanthaScreen™ assays were conducted for Wee1 in a 10-point dose response as performed in the commercial assay service by Life Technologies™. Z′-LYTE™ assays were conducted for PLK1 as performed in the commercial assay service by Life Technologies™ in a 10-point dose response using Km ATP concentrations.
# The selectivity of Wee1 degradation was then assessed by performing multiplexed mass spectrometry (MS)-based proteomics in MOLT4 cells treated with 100 nM of compound 13 for 2 hours (Donovan et al., Elife 7:e38430 (2018)).
# [1] = system: MOLT4 cells (parental, wild type); assay: CellTiter-Glo cell viability, 72 hours; format: cell-based; conditions: Homo sapiens, MOLT-4, 72 hours, read-out: Antiproliferative IC50
# Experimental: The indicated cell lines were plated in flat bottom 384-well plates (Corning® cat #3570). MOLT4 cells were plated at a density of 3,000 cells per well in 50 μL media, while OVCAR8, COV362, and Kuramochi cells were plated at a density of 750 cells per well in 50 μL media. Cells were treated the next day (except for MOLT4 cells, which were treated the same day as plating) with 0.1 μL of the indicated compounds in a four-fold dilution series using the Janus pinner. Cells were incubated with compounds for 72 hours at 37° C. 5% CO2. Anti-proliferative effects were then assessed by CellTiter-Glo® Luminescent Cell Viability Assay (Promega™ cat #G7570) according to the manufacturer's standards, measuring luminescence using an EnVision® plate-reader. IC50 values were determined using a non-linear regression curve fit in GraphPad Prism 8. N=4 biological replicates were used for each treatment condition.
# MOLT4 cells were plated in a 384-well plate at 5,000 cells per well in 50 μL media (RPMI+10% FBS+1% Penn/Strep) and treated with 0.1 μL of the candidate compounds in four-fold dilution series using the Janus pinner. Cells were incubated with compounds for 72 hours at 37° C. 5% CO2. Anti-proliferative effects of these compounds were assessed 72 hours after compound addition using CellTiter-Glo® (Promega, cat #G7571). All proliferation assays were performed in biological quadruplicate. […] Effects upon cell viability for compound 13 in the MOLT4 WT cells are therefore likely driven in part by Wee1 inhibition, and in part by CRBN-mediated Wee1 degradation. […] Degradation of Wee1 with compound 21 was mediated by VHL.
# Sequence of PLK1 (P53350 whole entry): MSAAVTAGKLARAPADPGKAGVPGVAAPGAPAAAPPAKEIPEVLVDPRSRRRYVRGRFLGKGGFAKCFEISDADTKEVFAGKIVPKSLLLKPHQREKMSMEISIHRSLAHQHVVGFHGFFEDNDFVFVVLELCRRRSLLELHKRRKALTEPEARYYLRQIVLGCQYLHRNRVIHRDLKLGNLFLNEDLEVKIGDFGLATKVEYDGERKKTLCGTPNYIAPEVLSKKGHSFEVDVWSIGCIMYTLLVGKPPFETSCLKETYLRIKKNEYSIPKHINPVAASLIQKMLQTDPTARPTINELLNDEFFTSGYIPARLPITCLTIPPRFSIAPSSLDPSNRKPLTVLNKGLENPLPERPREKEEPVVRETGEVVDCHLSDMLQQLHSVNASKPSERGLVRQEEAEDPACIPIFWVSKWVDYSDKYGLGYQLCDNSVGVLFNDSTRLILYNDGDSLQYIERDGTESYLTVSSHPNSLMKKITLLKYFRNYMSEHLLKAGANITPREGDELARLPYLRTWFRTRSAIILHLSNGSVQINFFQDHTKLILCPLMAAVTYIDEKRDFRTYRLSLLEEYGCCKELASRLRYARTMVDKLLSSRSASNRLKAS
# Sequence of Wee1 (P30291 whole entry): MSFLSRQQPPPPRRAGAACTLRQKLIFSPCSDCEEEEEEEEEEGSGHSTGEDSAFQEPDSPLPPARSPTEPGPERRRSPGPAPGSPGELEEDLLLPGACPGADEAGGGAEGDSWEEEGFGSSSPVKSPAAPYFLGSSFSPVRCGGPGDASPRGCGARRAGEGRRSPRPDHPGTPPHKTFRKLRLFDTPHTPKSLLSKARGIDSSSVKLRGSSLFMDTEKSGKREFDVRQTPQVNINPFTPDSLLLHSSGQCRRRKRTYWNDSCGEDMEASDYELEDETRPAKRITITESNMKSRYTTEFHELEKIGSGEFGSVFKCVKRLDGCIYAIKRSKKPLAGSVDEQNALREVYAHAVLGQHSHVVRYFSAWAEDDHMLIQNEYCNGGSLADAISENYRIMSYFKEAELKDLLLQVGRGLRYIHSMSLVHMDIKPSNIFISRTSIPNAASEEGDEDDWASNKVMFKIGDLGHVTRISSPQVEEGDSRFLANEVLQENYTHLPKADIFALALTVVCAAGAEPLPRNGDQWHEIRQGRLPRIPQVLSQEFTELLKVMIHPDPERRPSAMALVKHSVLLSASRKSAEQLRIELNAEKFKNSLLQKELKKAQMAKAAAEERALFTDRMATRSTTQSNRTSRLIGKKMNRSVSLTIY
Compound,"G2-M cells (MOLT4 cells; 100 nM, 24-hr treatment, MOLT4 cells, control 19%)","Cell cycle effects in CRBN−/− cells (MOLT4 cells; CRBN−/− MOLT4 cells, 24 hours)",Fold lower doses than AZD1775 inducing premature mitotic entry (MOLT4 cells; MOLT4 cells),Concentration giving maximal Wee1 degradation (Wee1),Synergy with Olaparib (OVCAR8 cells),IC50 (PLK1),IC50 [1],"Effect on the cell cycle (MOLT4 cells; 100 nM, 24-hr, MOLT4 cells)"
"C=CCn1c(=O)c2cnc(Nc3ccc(N4CCN(CCCNc5cccc6c5C(=O)N(C5CCC(=O)NC5=O)C6=O)CC4)cc3)nc2n1-c1cccc(C(C)(C)O)n1 (centres unmarked) [Compound 13, 4-((3-(4-(4-((2-allyl-1-(6-(2-hydroxypropan-2-yl)pyridin-2-yl)-3-oxo-2,3-dihydro-1H-pyrazolo[3,4-d]pyrimidin-6-yl)amino)phenyl)piperazin-1-yl)propyl)amino)-2-(2,6-dioxopiperidin-3-yl)isoindoline-1,3-dione]",34%,absent,10 fold,100 nM,synergized with Olaparib,102 nM,390 nM,
"C=CCn1c(=O)c2cnc(Nc3ccc(N4CCN(CCCNc5cccc6c5C(=O)N(C5CCC(=O)N(C)C5=O)C6=O)CC4)cc3)nc2n1-c1cccc(C(C)(C)O)n1 (centres unmarked) [Compound 20, 4-((3-(4-(4-((2-allyl-1-(6-(2-hydroxypropan-2-yl)pyridin-2-yl)-3-oxo-2,3-dihydro-1H-pyrazolo[3,4-d]pyrimidin-6-yl)amino)phenyl)piperazin-1-yl)propyl)amino)-2-(1-methyl-2,6-dioxopiperidin-3-yl)isoindoline-1,3-dione]",,,,,less synergistic activity,43 ± 4 nM,4560 nM,did not appreciably affect the cell cycle
